How the values were obtained:
Synovial cells = assay: Extracellular matrix formation and collagen content (hydroxyproline) of synovial cell synthetic tissue; format: cell-based; conditions: pig synovial cells
Description: Synovial cells were collected from a knee joint of a pig (LWD ternary hybrid, 2-3 months old upon removal of cells), followed by treatment with collagenase. The cells were cultured and subcultured in a 10% fetal bovine serum+High Glucose-DMEM medium (fetal bovine serum available from HyClone, DMEM was obtained from GIBCO). It has been reported that 10th passage synovial cells still have pluripotency. Although cells of 10 or less passages were used in this production example, it is understood that cells of more than 10 passages may be used depending on the application. Autotransplantation was performed for actual human implantation, but it was necessary to secure a sufficient number of cells and to culture the cells for a short period of time so as to reduce the risk of infection or the like. Synovial cells (4.0×10^5) were cultured in 0.1-0.2 ml/cm^2 of 10% FBS-DMEM medium in a 35-mm dish, 60-mm dish, 100-mm dish, 150-mm dish, 500-m dish, 6-well culture dish, 12-well culture dish, or 24-well culture dish (BD Biosciences, cell culture dish and multiwell cell culture plate). In this case, ascorbic acid was added. […] In order to determine the collagen concentration, the collagen content was measured. […]

ES-MSCs = assay: Volume, weight and hydroxyproline of TEC from ES-MSCs with or without ascorbic acid 2-phosphate; format: cell-based, rabbit; conditions: 0.2 mM added versus non-added; FIG. 3
Description: The protocol thereof is disclosed below.
ES-MSCs were inoculated at a TEC creation concentration (1.52×10^5 cells/well) in each well of a 12 well plate to create a TEC. A medium was created by separating conventional 10% FBS-containing DMEM for TEC creation into a 0.2 mM ascorbic acid added group (n=6) and non-added group (n=6). Three of each group were used for weight/volume measurements and the rest of the three were used in hydroxyproline measurements. For hydroxyproline, the following kit was used (Hydroxyproline Assay Kit Cat#K555-100; Lot#60855, BioVision), where the measurements were taken in accordance with the protocol on the package insert.
For the TEC made from 0.125×10^6, 0.25×10^6, 0.5×10^6, 1×10^6, 2×10^6, 4×10^6, 8×10^6, or 16×10^6 cells/well in a 6 well plate which was cultured over 12 days, detached, and allowed to undergo self-contraction, the volume was measured with a plethysmometer (model TK-101CMP; UNICOM, Chiba, Japan), and the weight was measured with a scale (Ando W, Tateishi K, Katakai D, Hart D A, Higuchi C, Nakata K, et al., Tissue Eng Part A 2008:14:2041-2049). 4 samples were evaluated at each cell density. In short, a plethysmometer is a minute volume controlled measuring device that is specially designed for accurate measurement. A plethysmometer consists of Perspex cells filled with water. A transducer records a small difference in the water level caused by a change in volume. […] The weight was measured with a common scale (METTLER TOLEDO AG204, Mettler-Toledo International Inc., Max210gd=0.1 mg, METTLER TOLEDO AG204 (Mettler-Toledo International Inc.)) in a laboratory […]. Measurements were taken in accordance with the protocol on the package insert.

O=C1O[C@H]([C@@H](O)CO)C(O)=C1OP(=O)(O)O [ascorbic acid 2-phosphate]
production of collagen (amount of hydroxyproline) (Synovial cells; 0.1 mM or more added): significantly promoted
formation of an extracellular matrix (Synovial cells; added at a concentration of 0.1 mM or more): promoted
hydroxyproline generation amount of TEC (ES-MSCs): significantly increased
volume of TEC (ES-MSCs): significantly increased
weight of TEC (ES-MSCs): significantly increased
